Laboratory results taken from patent US20250082655A1, “USE OF HETEROCYCLIC COMPOUND” (WUHAN CREATERNA SCIENCE AND TECHNOLOGY CO., LTD., priority 2022, published 2025).
Several values for one entry are separate records, joined by “and”; a condition that tells them apart may be missing. Equal entries are not always repeated.

Tested on: citric acid-induced acute cough in guinea pigs
Experiment: ATP-sensitized citric acid-induced acute cough model in guinea pigs (WBP system)
Type: in vivo, guinea pig
Conditions: for Total cough count (CCnt): within 10 minutes, Mean ± SEM, N = 12; for Change rate of total cough count: versus solvent group; for average cough times decreased compared to the solvent group: decrease; for antitussive effect (in words): compared to the solvent group
Experimental: • Male Hartley guinea pigs: Beijing Vital River Laboratory Animal Technology Co., Ltd; • 250 μM ATP solution: Sigma, catalog number A2383; • 0.5 M citric acid solution: Sigma, catalog number C2404; • DSI Buxco Whole Body Plethysmography (WBP) system instrument: manufacturer DSI, serial numbers 100249, 990171; • Electronic balance: Mettler Toledo, serial number B844687071.
• Solvent (10% (v/v) E-TPGS aqueous solution, pH 7.4±0.1): TPGS was heated and melted into a liquid in a water bath. 10 mL of TPGS was taken and then added to 85 mL of deionized water, and the mixture was stirred to form a homogeneous solution. The pH was adjusted to 7.4±0.1 using an appropriate concentration of HCl/NaOH. The final volume was made up to 100 mL with deionized water, and the mixture was stirred until visually homogeneous. The pH was checked, and if necessary, adjusted to 7.4±0.1 using an appropriate concentration of HCl/NaOH.
The administration formulation was prepared under yellow light conditions.
The required mass of the compound was accurately weighed into an appropriate container, and slowly added to a suitable container containing 80% of the final volume of the solvent (10% (v/v) E-TPGS aqueous solution, pH 7.4±0.1), and the mixture was stirred until visually homogeneous. The solvent was added to 90% of the final volume, and the mixture was stirred until visually homogeneous. If necessary, the pH was adjusted to 7.3-7.6 with an appropriate concentration of HCl/NaOH. If necessary, the formulation was subjected to ultrasonic treatment. The solvent was then added to the final volume, and the mixture was stirred until a visually clear and homogeneous solution was obtained.
After the preparation of the administration formulation was completed, the administration formulation was aliquoted into daily doses and stored in a refrigerator at 2-8° C., protected from light, and used within 10 days. Prior to administration, the formulation was removed from the refrigerator 30 minutes in advance, and stirred for 30 minutes at room temperature and protected from light until it reached room temperature.
Preparation of dextromethorphan: the required volume for administration was calculated based on the animal's body weight. The weighting amount of dextromethorphan (DM) was determined based on the administration volume and dose. The DM was accurately weighed and dissolved in 1×PBS (Phosphate Buffered Saline) with the calculated administration volume. The solution was mixed homogeneously by shaking until a clear solution was formed, and it was prepared freshly before use.
In the experiment, the solvent (10% (v/v) E-TPGS (Vitamin E Polyethylene Glycol Succinate)) and each test compound were administered to guinea pigs by gavage 3 hours prior to citric acid nebulization. The reference compound, dextromethorphan (DM), was administered to guinea pigs by gavage 40 minutes prior to citric acid nebulization (see Table 1 for details).
At the scheduled time, male Hartley guinea pigs (300-400 g) were placed in the respiratory volume plethysmography chamber of the DSI Buxco Whole Body Plethysmography (WBP) system. After an acclimation period of 3-5 minutes, a solution of ATP with a concentration of 250 μM was nebulized and sprayed into the chamber for 2 minutes. After a 3-minute interval, a solution of citric acid with a concentration of 0.5 M was administered for 5 minutes to induce coughing. From the start of citric acid nebulization, the WBP system recorded the total cough counts (CCnt) within 10 minutes and the cough incubation period (CIP, i.e., the time from the start of citric acid induction to the appearance of the first cough).

[1] = 30 mg/kg oral single dose 3 hours before citric acid nebulization
[2] = 30 mg/kg oral, 3 hours before citric acid nebulization
[3] = 30 mg/kg oral, 3 hours before citric acid

| Compound | Total cough count (CCnt) (3 mg/kg oral single dose 3 hours before citric acid nebulization) | Cough incubation period (CIP) (3 mg/kg oral, 3 hours before citric acid nebulization) | Change rate of total cough count (3 mg/kg oral, 3 hours before citric acid) | average cough times decreased compared to the solvent group (3 mg/kg oral) | Total cough count (CCnt) (10 mg/kg oral single dose 3 hours before citric acid nebulization) | Cough incubation period (CIP) (10 mg/kg oral, 3 hours before citric acid nebulization) | Change rate of total cough count (10 mg/kg oral, 3 hours before citric acid) | average cough times decreased compared to the solvent group (10 mg/kg oral) | Total cough count (CCnt) [1] | Cough incubation period (CIP) [2] | Change rate of total cough count [3] | average cough times decreased compared to the solvent group (30 mg/kg oral) | antitussive effect (in words) | Total cough count (CCnt) (63 mg/kg oral single dose 40 minutes before citric acid nebulization) | Cough incubation period (CIP) (63 mg/kg oral, 40 minutes before citric acid nebulization) | Change rate of total cough count (63 mg/kg oral, 40 minutes before citric acid) |
| --- | --- | --- | --- | --- | --- | --- | --- | --- | --- | --- | --- | --- | --- | --- | --- | --- |
| O=C(c1ccc(F)cc1C(F)(F)F)c1cnc2n1CCN(c1cnn(COP(=O)(O)O)c(=O)c1Cl)C2 [Compound 1, (5-chloro-4-(3-(4-fluoro-2-(trifluoromethyl)benzoyl)-5,6-dihydroimidazo[1,2-a]pyrazin-7(8H)-yl)-6-oxopyridazin-1(6H)-yl)methyl Dihydrogen Phosphate] | 17.00 times and 17.00 ± 2.11 times | 234.42 s and 234.42 ± 24.11 s | −20.93% | 20.93% | 13.42 times and 13.42 ± 1.18 times | 283.67 s and 283.67 ± 42.98 s | −37.60% | 37.60% | 10.73 times and 10.73 ± 1.71 times | 293.75 s and 293.75 ± 33.66 s | −50.11% | 50.11% | good antitussive effect |  |  |  |
| O=c1[nH]ncc(N2CCc3c(ncnc3Oc3ccc(F)cc3C(F)(F)F)C2)c1Cl [Compound 2-1] |  |  |  |  |  |  |  |  | 12.75 ± 1.86 times | 290.08 s and 290.08 ± 43.61 s | −40.70% | 40.70% | good antitussive efficacy |  |  |  |
| O=c1c(-c2ccc(O)cc2)coc2cc(O)cc(O)c12 [Compound 3-1] |  |  |  |  |  |  |  |  | 11.83 ± 2.02 times | 281.67 s and 281.67 ± 37.84 s | −44.96% | 44.96% | good antitussive efficacy |  |  |  |
| COc1ccc2c(c1)[C@]13CCCC[C@@H]1[C@H](C2)N(C)CC3 [DM, dextromethorphan, reference compound] |  |  |  |  |  |  |  |  |  |  |  |  |  | 12.17 times and 12.17 ± 2.76 ^c times | 291.00 s and 291.00 ± 41.65 s | −43.41% |
